From patent publication US12329171B1, “Natural food preservative” (IMAM MOHAMMAD IBN SAUD ISLAMIC UNIVERSITY, priority 2024, dated 2025) come the findings set out here.

Experiment [1] has as its system S. aureus. Put plainly: Well diffusion assay, antibacterial. It is filed as cell-based, Staphylococcus aureus. The conditions noted are these: 10 μl. The source says: (§1) The investigation focused on the antibacterial properties of extracts derived from onion peel, pomegranate peel, and chia seed, particularly when encapsulated in nanoformulations (OPE-CSNP and PPE-CSNP). The extracts, known for their richness in bioactive compounds like phenolic compounds, flavonoids, and tannins, were explored for potential health benefits against various microbes. The study employed the inhibition zone diameter to evaluate the effectiveness of these natural extracts in inhibiting microbial growth, thereby assessing their antimicrobial properties.
(§2) Moreover, these composites show promise as food preservatives, potentially extending shelf life, given their moderate antimicrobial activity against B. cereus and S. aureus.

Experiment [2] has as its system B. cereus. In words: Well diffusion assay, antibacterial. In kind it is cell-based, Bacillus cereus. The conditions noted are these: 10 μl.
Source text: as §1, §2
A general note: A growth-free zone around the sample is the usual read-out of agar diffusion tests.

As for penicillin, the “Inhibition zone diameter (mm) S. aureus” value in experiment [1] was found to be 14 mm. The “Inhibition zone diameter (mm) B. cereus” value in experiment [2] is recorded as 14 mm.

Regarding `CC1(C)S[C@@H]2[C@H](NC(=O)[C@H](N)c3ccccc3)C(=O)N2[C@H]1C(=O)O` [Ampicillin, ampicillin], the “Inhibition zone diameter (mm) S. aureus” value in experiment [1] is listed as 16 mm. Moreover, the “Inhibition zone diameter (mm) B. cereus” value in experiment [2] is given as 16 mm.
